According to patent publication EP2264010A1, “Hetarylamidines” (Bayer CropScience AG, priority 2009, dated 2010):

Tests used:
[1] = logP by HPLC on reversed-phase columns (C 18), EEC Directive 79/831 Annex V.A8; assay type: physicochemical; conditions: c18 reversed-phase hplc, reversed-phase (C 18), read-out: log p
From the text: Die Messung der logP Werte erfolgte gemäß EEC Directive 79/831 Annex V.A8 durch HPLC (High Performance Liquid Chromatography) an reversed-phase Säulen (C 18), mit der nachfolgenden Methode: […]

VIOTR [2] = assay: Herbicidal activity, test type PE; assay type: in vivo; conditions: TEST-TYP PE, read-out: herbizide Wirkung VIOTR
SETVI = assay: Herbicidal activity, test type PE; assay type: in vivo; conditions: TEST-TYP PE, read-out: herbizide Wirkung SETVI
VERPE = assay: Herbicidal activity, test type PE; assay type: in vivo; conditions: TEST-TYP PE; for pest or weed control at 320 g/ha: read-out: herbizide Wirkung VERPE
AMARE [3] = assay: Herbicidal activity, test type PE; assay type: in vivo; conditions: TEST-TYP PE; for pest or weed control at 320 g/ha: Amaranthus retroflexus, read-out: herbizide Wirkung AMARE
ECHCG = assay: Herbicidal activity, test type PE; assay type: in vivo; conditions: TEST-TYP PE, 320 G/HA
MATIN = assay: Herbicidal activity, test type PE; assay type: in vivo; conditions: TEST-TYP PE, read-out: herbizide Wirkung MATIN
LOLMU = assay: Herbicidal activity, test type PE; assay type: in vivo; conditions: TEST-TYP PE, read-out: herbizide Wirkung LOLMU
STEME = assay: Herbicidal activity, test type PE; assay type: in vivo; conditions: TEST-TYP PE, read-out: herbizide Wirkung STEME
PHBPU = assay: Herbicidal activity, test type PO; assay type: in vivo; conditions: TEST-TYP PO, 80 G/HA
AMARE [4] = assay: Herbicidal activity, test type PO; assay type: in vivo; conditions: TEST-TYP PO, 80 G/HA
VIOTR [5] = assay: Herbicidal activity, test type PO; assay type: in vivo; conditions: TEST-TYP PO, 80 G/HA
ALOMY = assay: Herbicidal activity, test type PE; assay type: in vivo; conditions: TEST-TYP PE, 320 G/HA

SMILES | chromatographic logP [1] | pest or weed control at 320 g/ha (VIOTR [2]) [%] | pest or weed control at 320 g/ha (SETVI) [%] | pest or weed control at 320 g/ha (VERPE) [%] | pest or weed control at 320 g/ha (AMARE [3]) [%] | further results
CC(=Nc1ncc(Cl)cc1-c1ccc(F)c(C(F)(F)F)c1)N1CCCCC1 [compound 22] | 1.74 | – | – | – | – | –
FC(F)(F)c1ccc(-c2cc(Cl)cnc2N=CN2CCCC2)cc1Cl [compound 26] | 1.98 | – | – | – | – | –
CCN(C)C=Nc1ncc(C)cc1-c1ccc(Cl)c(C(F)(F)F)c1 [compound 2] | – | 90 | 90 | – | – | –
CCN(C)C=Nc1ncc(C)cc1-c1ccc(F)c(C(F)(F)F)c1 [compound 18] | 1.48 | 90 | 90 | 100 | 80 | –
CCN(C)C=Nc1ncc(-c2ccc(Cl)c(C(F)(F)F)c2)cc1C [compound 175] | – | – | – | – | – | herbizide Wirkung ECHCG (ECHCG): 90; herbizide Wirkung VERPE (VERPE; 320 G/HA): 90; herbizide Wirkung AMARE (AMARE [3]; 320 G/HA): 80
CCN(C)C=Nc1ncc(-c2ccc(Cl)c(C(F)(F)F)c2)cc1C [compound 58] | – | – | 90 | 90 | 90 | herbizide Wirkung ECHCG (ECHCG): 90; pest or weed control at 320 g/ha (MATIN): 80%
CC(C)N(C=Nc1ncc(Cl)cc1-c1ccc(F)c(C(F)(F)F)c1)C(C)C [compound 21] | 4.19 | – | – | – | – | –
CC(=Nc1ncc(C)cc1-c1ccc(F)c(C(F)(F)F)c1)N(C)C [compound 20] | 1.3 | – | – | – | – | –
CCN(C)C=Nc1ncc(-c2ccc(Cl)c(Cl)c2)cc1C [compound 94] | – | 80 | 90 | 80 | – | –
Fc1ccc(-c2cc(Cl)cnc2N=CN2CCCC2)cc1C(F)(F)F [compound 16] | 1.75 | – | 100 | 80 | – | pest or weed control at 320 g/ha (LOLMU): 80%; pest or weed control at 320 g/ha (STEME): 80%
Cc1cnc(N=CN(C)C)c(-c2cccc(C(F)(F)F)c2)c1 [compound 31] | – | – | 80 | 80 | – | –
Cc1cc(-c2cccc(C(F)(F)F)c2)cnc1N=CN(C)C [compound 76] | – | 90 | 100 | – | 90 | –
CN(C)C=Nc1ncc(Cl)cc1-c1ccc(F)c(C(F)(F)F)c1 [compound 13] | 2 | – | – | 80 | 80 | –
CCN(C)C=Nc1ncc(-c2cccc(Cl)c2)cc1C [compound 101] | – | 80 | 90 | – | 80 | herbizide Wirkung PHBPU (PHBPU): 80; herbizide Wirkung AMARE (AMARE [4]): 80; pest or weed control at 320 g/ha (LOLMU): 80%; herbizide Wirkung ECHCG (ECHCG): 85; pest or weed control at 320 g/ha (MATIN): 95%
Cc1cc(-c2ccc(F)c(C(F)(F)F)c2)cnc1N=CN(C)C [compound 64] | – | 90 | 90 | 100 | 90 | herbizide Wirkung AMARE (AMARE [4]): 80; pest or weed control at 320 g/ha (LOLMU): 90%; pest or weed control at 320 g/ha (STEME): 90%; herbizide Wirkung VIOTR (VIOTR [5]): 80; pest or weed control at 320 g/ha (MATIN): 100%
Cc1cc(-c2cccc(Cl)c2)cnc1N=CN(C)C [compound 102] | – | 80 | 90 | – | – | pest or weed control at 320 g/ha (LOLMU): 80%; pest or weed control at 320 g/ha (MATIN): 90%
CCN(C=Nc1ncc(Cl)cc1-c1ccc(Cl)c(C(F)(F)F)c1)CC [compound 11] | 3.63 | 80 | – | – | 80 | –
Cc1cnc(N=CN2CCCC2)c(-c2ccc(F)c(C(F)(F)F)c2)c1 [compound 147] | – | – | – | 90 | – | –
Cc1cnc(N=CN2CCCC2)c(-c2ccc(Cl)c(C(F)(F)F)c2)c1 [compound 10] | 1.63 | – | – | – | – | –
CCN(C)C=Nc1ncc(Cl)cc1-c1ccc(F)c(C(F)(F)F)c1 [compound 14] | 2.21 | 90 | 100 | 90 | 90 | herbizide Wirkung ALOMY (ALOMY): 90; pest or weed control at 320 g/ha (LOLMU): 100%; pest or weed control at 320 g/ha (STEME): 85%; herbizide Wirkung ECHCG (ECHCG): 80; pest or weed control at 320 g/ha (MATIN): 100%
